Common to all, as to assay type: functional, cell-based
The subject of assay [1] is MCF7. The assay is described as follows: Cytotoxicity against human MCF7 cells overexpressing urokinase plasminogen activator at > 144 uM.
In another assay the test system is MDA-MB-231. The assay is described as follows: Cytotoxicity against human MDA-MB-231 cells overexpressing urokinase plasminogen activator.
For assay [2], the system named is MCF7. The assay is described as follows: Cytotoxicity against human MCF7 cells overexpressing urokinase plasminogen activator at > 20.3 uM.

Calls of active or inactive are those of the source. No cut-off for these calls is given here.

As for `O=C(O)CCC(=O)O[C@H]1C[C@H](n2cc(F)c(=O)[nH]c2=O)O[C@@H]1CO`, in the assay on MCF7 [1], the inhibition result was “inactive”. In general, IC50 refers to the concentration at which inhibition is half-maximal. Low readings indicate greater potency in that assay, high ones weaker potency in that assay. `O=c1[nH]c(=O)n([C@H]2C[C@H](O)[C@@H](CO)O2)cc1F` [FLOXURIDINE] showed an IC50 in the assay with MDA-MB-231 of 210 nM. In the assay on MCF7 [2], the inhibition result is “inactive”.

These data come from ChEMBL document CHEMBL1157921, “Selective targeting of 2'-deoxy-5-fluorouridine to urokinase positive malignant cells in vitro” (Bioorg Med Chem Lett, 2010).
